In patent publication US4349526A, “Process for the production of hydrogen peroxide” (Degussa Aktiengesellschaft, priority 1980, dated 1982):

Assays:
[1] = Oxidation resistance of hydroquinone solvents, gassing with dry air at 140° C., 50 hours; format: physicochemical; settings: 36 liters dry air per hour, 150 ml solvent; gas chromatography
Protocol: The hydroquinone solvent content in percent based on the starting hydroquinone content was determined gas chromatographically and set forth in Table 5.

Viscosity = format: physicochemical
[2] = Mutual solubility of urea and water; format: physicochemical
Density = format: physicochemical
[3] = Oxidation breakdown on gassing with dry air at 140° C., 2.5 hours; format: physicochemical; settings: 36 liters dry air per hour, 150 ml urea, decrease of urea based on starting content
Protocol: In a gassing apparatus equipped with gassing frit and intensive condenser in each case gassing was carried out with 150 ml of the ureas set forth in Table 4 using 36 liters of dry air per hour at a temperature of 140° C. for 2.5 hours. During the test half hourly samples were drawn off and the oxidative breakdown followed by means of capillary gas chromatography. As a measure for the oxidative breakdown the decrease of the amount of urea in percentage based on the starting urea content is used.

[4] = in words; German AS; cited from earlier work

Compound	Hydroquinone Solvent Content (%) after 50 hours Gassing at 140° C. [1] [%]	Oxidation Breakdown After 2.5 hours [3] [%]	further results
CCCCN(CCCC)C(=O)N(C)c1ccccc1 [N,N-dibutyl-N'-methyl-N'-phenylurea]	100.0	0	Viscosity (50° C.) (Viscosity): 9.2 cP; Solubility in Water at 20° C. [2]: 0.01%; Density (50° C.) (Density; Table 2): 0.9499 g/mL; Density (50° C.) (Density; Table 3): 0.950 g/mL
CCCCC(CC)COP(=O)(OCC(CC)CCCC)OCC(CC)CCCC (stereo not drawn) [tris-2-ethylhexyl phosphate]	88.3		
CCCN(CCC)C(=O)N(C)c1ccccc1 [N,N-dipropyl-N'-methyl-N'-phenylurea]	100.0	0	Density (50° C.) (Density; Table 2): 0.9690 g/mL
CC(C)(C)c1ccccc1 [tert. butyl benzene]			oxidation resistance [4]: oxidation resistant
CC(C)CC(O)CC(C)C [di-i-butylcarbinol]	16.6		
CN(C)C(=O)N(C)c1ccccc1 [N,N,N'-trimethyl-N'-phenylurea]		0	Density (50° C.) (Density; Table 2): 1.0392 g/mL
CC(C)N(C(=O)N(C)c1ccccc1)C(C)C [N,N-di-i-propyl-N'-methyl-N'-phenylurea]		0	
methylcyclohexyl acetate	77.4		
CCN(CC)C(=O)N(C)c1ccccc1 [N,N-diethyl-N'-methyl-N'-phenylurea]		0	Density (50° C.) (Density; Table 2): 0.9941 g/mL
CC(C)N(C(=O)N(C)C)C(C)C [N,N-dimethyl-N'-di-i-propylurea, reference compound]		2.6	

More lines, main results first:

Hydroquinone Solvent Content (%) after 50 hours Gassing at 140° C. [1] [%]	Oxidation Breakdown After 2.5 hours [3] [%]	Compound	further results
	0	CN(C(=O)N1CCOCC1)c1ccccc1 [N'-methyl-N'-phenylcarbamoyl-N-morpholine]	
86.6	9.2	CCCCN(CCCC)C(=O)N(CC)CC [N,N-diethyl-N',N'-dibutylurea, reference compound]	
	0	CCC(C)N(C)C(=O)N(C)c1ccccc1 (stereo not drawn) [N,N'-dimethyl-N-s-butyl-N'-phenylurea]	
100.0		N,N-di-i-propyl-N'-phenylurea	
